In ChEMBL document CHEMBL4308864, “Targeting tyrosine kinase: Development of acridone - pyrrole - oxindole hybrids against human breast cancer” (2019):

Experiments:
Type in all cases: functional
LOX IMVI = experiment: Growth inhibition of human LOXIMVI cells assessed as cell growth at 10^-5 M incubated for 48 hrs by sulforhodamine B assay relative to control; conditions: read-out: Activity
MDA-MB-435 = experiment: Growth inhibition of human MDA-MB-435 cells assessed as cell growth at 10^-5 M incubated for 48 hrs by sulforhodamine B assay relative to control; conditions: MDA-MB-435, 48 h, read-out: Activity
HT-29 = experiment: Growth inhibition of human HT-29 cells assessed as cell growth at 10^-5 M incubated for 48 hrs by sulforhodamine B assay relative to control; conditions: HT-29, 48 h, read-out: Activity
M14 = experiment: Growth inhibition of human M14 cells assessed as cell growth at 10^-5 M incubated for 48 hrs by sulforhodamine B assay relative to control; conditions: M14, 48 h, read-out: Activity
OVCAR-5 = experiment: Growth inhibition of human OVCAR5 cells assessed as cell growth at 10^-5 M incubated for 48 hrs by sulforhodamine B assay relative to control; conditions: OVCAR-5, 48 h, read-out: Activity
UO-31 = experiment: Growth inhibition of human UO31 cells assessed as cell growth at 10^-5 M incubated for 48 hrs by sulforhodamine B assay relative to control; conditions: UO-31, 48 h, read-out: Activity
UACC-62 = experiment: Growth inhibition of human UACC62 cells assessed as cell growth at 10^-5 M incubated for 48 hrs by sulforhodamine B assay relative to control; conditions: UACC-62, 48 h, read-out: Activity
Malme-3M = experiment: Growth inhibition of human MALME-3M cells assessed as cell growth at 10^-5 M incubated for 48 hrs by sulforhodamine B assay relative to control; conditions: read-out: Activity
U-251 = experiment: Growth inhibition of human U251 cells assessed as cell growth at 10^-5 M incubated for 48 hrs by sulforhodamine B assay relative to control; conditions: U-251, 48 h, read-out: Activity
COLO 205 = experiment: Growth inhibition of human COLO205 cells assessed as cell growth at 10^-5 M incubated for 48 hrs by sulforhodamine B assay relative to control; conditions: COLO 205, 48 h, read-out: Activity
SF-539 = experiment: Growth inhibition of human SF539 cells assessed as cell growth at 10^-5 M incubated for 48 hrs by sulforhodamine B assay relative to control; conditions: SF-539, 48 h, read-out: Activity
DU-145 = experiment: Growth inhibition of human DU145 cells assessed as cell growth at 10^-5 M incubated for 48 hrs by sulforhodamine B assay relative to control; conditions: DU-145, 48 h, read-out: Activity
NCI-H522 = experiment: Growth inhibition of human NCI-H522 cells assessed as cell growth at 10^-5 M incubated for 48 hrs by sulforhodamine B assay relative to control; conditions: NCI-H522, 48 h, read-out: Activity
NCI-H23 = experiment: Growth inhibition of human NCI-H23 cells assessed as cell growth at 10^-5 M incubated for 48 hrs by sulforhodamine B assay relative to control; conditions: NCI-H23, 48 h, read-out: Activity
CAKI-1 = experiment: Growth inhibition of human Caki1 cells assessed as cell growth at 10^-5 M incubated for 48 hrs by sulforhodamine B assay relative to control; conditions: CAKI-1, 48 h, read-out: Activity
EKVX = experiment: Growth inhibition of human EKVX cells assessed as cell growth at 10^-5 M incubated for 48 hrs by sulforhodamine B assay relative to control; conditions: read-out: Activity
NCI/ADR-RES = experiment: Growth inhibition of human NCI/ADR-RES cells assessed as cell growth at 10^-5 M incubated for 48 hrs by sulforhodamine B assay relative to control; conditions: read-out: Activity
SNB-19 = experiment: Growth inhibition of human SNB19 cells assessed as cell growth at 10^-5 M incubated for 48 hrs by sulforhodamine B assay relative to control; conditions: SNB-19, 48 h, read-out: Activity
BT-549 = experiment: Growth inhibition of human BT549 cells assessed as cell growth at 10^-5 M incubated for 48 hrs by sulforhodamine B assay relative to control; conditions: BT-549, 48 h, read-out: Activity
ACHN = experiment: Growth inhibition of human ACHN cells assessed as cell growth at 10^-5 M incubated for 48 hrs by sulforhodamine B assay relative to control; conditions: read-out: Activity
NCI-H322M = experiment: Growth inhibition of human NCI-H322M cells assessed as cell growth at 10^-5 M incubated for 48 hrs by sulforhodamine B assay relative to control; conditions: read-out: Activity
HOP-62 = experiment: Growth inhibition of human HOP62 cells assessed as cell growth at 10^-5 M incubated for 48 hrs by sulforhodamine B assay relative to control; conditions: HOP-62, 48 h, read-out: Activity
MDA-MB-468 = experiment: Growth inhibition of human MDA-MB-468 cells at 10^-5 M incubated for 48 hrs by sulforhodamine B assay relative to control; conditions: MDA-MB-468, 48 h, read-out: GI
HOP-92 = experiment: Growth inhibition of human HOP92 cells assessed as cell growth at 10^-5 M incubated for 48 hrs by sulforhodamine B assay relative to control; conditions: HOP-92, 48 h, read-out: Activity
K562 = experiment: Growth inhibition of human K562 cells assessed as cell growth at 10^-5 M incubated for 48 hrs by sulforhodamine B assay relative to control; conditions: K562, 48 h, read-out: Activity
SF-295 = experiment: Growth inhibition of human SF295 cells assessed as cell growth at 10^-5 M incubated for 48 hrs by sulforhodamine B assay relative to control; conditions: SF-295, 48 h, read-out: Activity
KM12 = experiment: Growth inhibition of human KM12 cells assessed as cell growth at 10^-5 M incubated for 48 hrs by sulforhodamine B assay relative to control; conditions: KM12, 48 h, read-out: Activity
SW-620 = experiment: Growth inhibition of human SW620 cells assessed as cell growth at 10^-5 M incubated for 48 hrs by sulforhodamine B assay relative to control; conditions: SW-620, 48 h, read-out: Activity
SF-268 = experiment: Growth inhibition of human SF268 cells assessed as cell growth at 10^-5 M incubated for 48 hrs by sulforhodamine B assay relative to control; conditions: SF-268, 48 h, read-out: Activity
TK-10 = experiment: Growth inhibition of human TK10 cells assessed as cell growth at 10^-5 M incubated for 48 hrs by sulforhodamine B assay relative to control; conditions: TK-10, 48 h, read-out: Activity
SR = experiment: Growth inhibition of human SR cells assessed as cell growth at 10^-5 M incubated for 48 hrs by sulforhodamine B assay relative to control; conditions: read-out: Activity
A498 = experiment: Growth inhibition of human A498 cells assessed as cell growth at 10^-5 M incubated for 48 hrs by sulforhodamine B assay relative to control; conditions: A498, 48 h, read-out: Activity
SNB-75 = experiment: Growth inhibition of human SNB75 cells assessed as cell growth at 10^-5 M incubated for 48 hrs by sulforhodamine B assay relative to control; conditions: SNB-75, 48 h, read-out: Activity

| Compound | growth at 10 µM (LOX IMVI) [%] | growth at 10 µM (MDA-MB-435) [%] | growth at 10 µM (HT-29) [%] | growth at 10 µM (M14) [%] | growth at 10 µM (OVCAR-5) [%] | growth at 10 µM (UO-31) [%] | growth at 10 µM (UACC-62) [%] | growth at 10 µM (Malme-3M) [%] | growth at 10 µM (U-251) [%] | growth at 10 µM (COLO 205) [%] | growth at 10 µM (SF-539) [%] | growth at 10 µM (DU-145) [%] | growth at 10 µM (NCI-H522) [%] | growth at 10 µM (NCI-H23) [%] | growth at 10 µM (CAKI-1) [%] | growth at 10 µM (EKVX) [%] | growth at 10 µM (NCI/ADR-RES) [%] | growth at 10 µM (SNB-19) [%] | growth at 10 µM (BT-549) [%] | growth at 10 µM (ACHN) [%] | also measured |
| --- | --- | --- | --- | --- | --- | --- | --- | --- | --- | --- | --- | --- | --- | --- | --- | --- | --- | --- | --- | --- | --- |
| O=C1/C(=C\c2cccn2CCCCn2c3ccccc3c(=O)c3ccccc32)c2ccccc2N1c1c(Cl)cccc1Cl | 98.1 | 103 | 110 | 96 | 104 | 80.8 | 82.1 | 106 | 96 | 70 | 98.9 | 111 | 90 | 101 | 87.4 | 88.8 | 101 | 98.2 | 105 | 99.5 | growth at 10 µM (NCI-H322M): 103%; growth at 10 µM (HOP-62): 104%; inhibition of growth at 10 µM (MDA-MB-468): 28%; growth at 10 µM (HOP-92): 71%; growth at 10 µM (K562): 91.5%; growth at 10 µM (SF-295): 98.8%; growth at 10 µM (KM12): 90.8%; growth at 10 µM (SW-620): 105%; growth at 10 µM (SF-268): 94%; growth at 10 µM (TK-10): 108%; growth at 10 µM (SR): 87.7%; growth at 10 µM (A498): 116%; growth at 10 µM (SNB-75): 91.9% |
| O=C1/C(=C\c2cccn2CCCCCCn2c3ccccc3c(=O)c3ccccc32)c2ccccc2N1c1c(Cl)cccc1Cl | 98.5 | 105 | 106 | 98 | 93.5 | 70.2 | 85.5 | 102 | 97.6 | 92.8 | 104 | 113 | 91 | 101 | 87.8 | 89.5 | 104 | 99.2 | 104 | 97.7 | growth at 10 µM (NCI-H322M): 98.6%; growth at 10 µM (HOP-62): 102%; inhibition of growth at 10 µM (MDA-MB-468): 56%; growth at 10 µM (HOP-92): 75.3%; growth at 10 µM (K562): 97.9%; growth at 10 µM (SF-295): 99.2%; growth at 10 µM (KM12): 69.8%; growth at 10 µM (SW-620): 108%; growth at 10 µM (SF-268): 94.7%; growth at 10 µM (TK-10): 91%; growth at 10 µM (SR): 91.5%; growth at 10 µM (A498): 110%; growth at 10 µM (SNB-75): 95.2% |
| O=C1/C(=C\c2cccn2CCCCCn2c3ccccc3c(=O)c3ccccc32)c2ccccc2N1c1c(Cl)cccc1Cl | 96.6 | 108 | 96.2 | 97.2 | 94.5 | 75.5 | 82.6 | 108 | 93 | 72.2 | 97 | 111 | 84.9 | 98 | 74.4 | 94.6 | 97.3 | 98.5 | 97.1 | 100 | growth at 10 µM (NCI-H322M): 110%; growth at 10 µM (HOP-62): 102%; inhibition of growth at 10 µM (MDA-MB-468): 39%; growth at 10 µM (HOP-92): 65.6%; growth at 10 µM (K562): 97.6%; growth at 10 µM (SF-295): 103%; growth at 10 µM (KM12): 69.4%; growth at 10 µM (SW-620): 95.7%; growth at 10 µM (SF-268): 95.7%; growth at 10 µM (TK-10): 99.8%; growth at 10 µM (SR): 92.3%; growth at 10 µM (A498): 106%; growth at 10 µM (SNB-75): 87.3% |
| O=C1Nc2ccccc2/C1=C/c1cccn1CCCCCCn1c2ccccc2c(=O)c2ccccc21 | 91.2 | 96.7 | 92.9 | 78.2 | 82.2 | 56.2 | 50.3 | 90.7 | 92.4 | 50.5 | 100 | 94 | 66 | 73.6 | 72.6 | 65.3 | 71.8 | 97.1 | 63.5 | 89.7 | growth at 10 µM (NCI-H322M): 97.9%; growth at 10 µM (HOP-62): 63.2%; inhibition of growth at 10 µM (MDA-MB-468): 92%; growth at 10 µM (HOP-92): 56.4%; growth at 10 µM (K562): 66.6%; growth at 10 µM (SF-295): 97.2%; growth at 10 µM (KM12): 12.8%; growth at 10 µM (SW-620): 102%; growth at 10 µM (SF-268): 87%; growth at 10 µM (TK-10): 78.7%; growth at 10 µM (SR): 80.8%; growth at 10 µM (A498): 103%; growth at 10 µM (SNB-75): 92.3% |
